# Measurements published in patent publication US20240336926A1, “PHARMACEUTICAL COMPOSITION FOR TREATING TRIPLE NEGATIVE BREAST CANCER, CONTAINING NON-NATURAL NUCLEIC ACID LIGAND AS ACTIVE INGREDIENT” (INTEROLIGO CORPORATION, priority 2021, published 2024).
# Read-outs that look alike come from different tables or passages of the source. [NapdU] = 5-(N-(1-naphthylmethyl)carboxamide)-2'-deoxyuridine (Nap-dU)
# Key:
# [1] = target: human serum albumin (HSA) (Homo sapiens, UniProt P02768); assay: ELISA binding affinity (Kd) for 1st target
# Chain of human serum albumin (HSA) (P02768 25-609): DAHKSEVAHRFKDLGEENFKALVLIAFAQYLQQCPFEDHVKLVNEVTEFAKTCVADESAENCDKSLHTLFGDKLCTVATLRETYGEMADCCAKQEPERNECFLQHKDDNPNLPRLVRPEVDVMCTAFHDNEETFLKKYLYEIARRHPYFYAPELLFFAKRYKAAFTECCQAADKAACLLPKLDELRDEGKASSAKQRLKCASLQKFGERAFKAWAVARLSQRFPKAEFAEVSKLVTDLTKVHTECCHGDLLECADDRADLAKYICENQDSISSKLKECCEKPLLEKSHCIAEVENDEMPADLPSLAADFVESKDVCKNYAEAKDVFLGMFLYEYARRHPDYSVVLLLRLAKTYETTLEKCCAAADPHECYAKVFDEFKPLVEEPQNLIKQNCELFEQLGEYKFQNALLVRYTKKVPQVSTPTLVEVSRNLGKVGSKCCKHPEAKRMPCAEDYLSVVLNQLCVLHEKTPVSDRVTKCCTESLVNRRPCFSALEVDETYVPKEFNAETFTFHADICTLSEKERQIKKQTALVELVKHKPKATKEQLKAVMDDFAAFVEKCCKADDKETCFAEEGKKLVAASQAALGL
# K-RAS G12D protein = K-RAS G12D protein (Homo sapiens, UniProt P01116, G12D); assay: ELISA binding affinity (Kd) for 2nd target; settings: read-out: Biding affinity for 2nd target Kd, ligands with biotin conjugated to the 5′-end
# Procedure: The binding affinity of the nucleic acid ligands were measured using enzyme linked immunosorbent assay (ELISA).
# The test method was composed of the following steps. • 1) A target protein was coated on a microplate at a low temperature for 16 hours. • 2) The surface of the microplate was blocked by reaction at room temperature for 1 hour using Blocking Buffer (Pierce™ Protein-Free (PBS) Blocking Buffer, Thermo Scientific, USA). • 3) The microplate was treated with a nucleic acid ligand, followed by reaction at 37° C. for 1 hour. • 4) For enzyme conjugation, the microplate was treated with a streptavidin-horseradish peroxidase (HRP) conjugate (Thermo Scientific, USA), followed by reaction at room temperature for 1 hour. • 5) The microplate was treated with TMB substrate solution (Thermo Scientific, USA), followed by reaction at room temperature for 30 minutes. • 6) The microplate was treated with a reaction termination solution (2 M sulfuric acid). • 7) The absorbance was measured at 450 nm using GloMax plate meter (Promega, USA).
# The target protein and the nucleic acid ligand were each used at 4-fold dilution starting from 500 nM.
# [2] = Serum half-life in human serum (urea-PAGE band intensity); type: in vitro ADME; settings: 96% human serum, 37° C.; ligands with biotin conjugated to the 5′-end
# Procedure: The stabilized nucleic acid ligand was added to the 96% human serum and then reacted at 37° C. for 0, 3, 6, 9, 12, 15, and 18 hours, thereby inducing the degradation of the nucleic acid ligand. After each of the reaction times, the nuclease was inactivated by heating at 85° C., and electrophoresis was performed on a 10% urea-polyacrylamide gel. A control without the addition of human serum was included as a loading control, and the band intensities of the control and the test groups were measured. The intensity trend line over time was determined using the measurement values, and the intensity value was inserted into the trend equation to obtain the half-life.
Substance,Kd [1] [nM],Kd (K-RAS G12D protein) [nM],"Kd ([1]; HSA, ELISA, ligands with biotin conjugated to the 5′-end, read-out: Biding affinity for 1st target Kd) [nM]",Serum half-life t½ [2] [h]
"AD004: truncated nucleic acid ligand GCCTGGAC6AGCA6AAG6CCGGA6GGCAGC666A6GCCGACCA6CAGCC, 6 = Nap-dU (DNA GCCTGGACUAGCAUAAGUCCGGAUGGCAGCUUUAUGCCGACCAUCAGCC; aptamer; DNA, [NapdU] at 9, 14, 18, 24, 31, 32, 33, 35, 44, backbone and methylation of C not given here)",190,16.6,,
"AD005: truncated nucleic acid ligand GAC6AGCA6AAG6CCGGA6GGCAGC666A6GCCGACCA6, 6 = Nap-dU (DNA GACNAGCANAAGNCCGGANGGCAGCNNNANGCCGACCAN; Nap-dU modified bases; modified_base 4 OTHER; 5-(N-(1-naphthylmethyl)carboxamide)-2-deoxyuridine; modified_base 9 OTHER; 5-(N-(1-naphthylmethyl)carboxamide)-2'-deoxyuridine(Nap-dU); modified_base 13 OTHER; modified_base 19 OTHER; modified_base 26..28 OTHER; 5-(N-(1-naphthylmethyl)carboxamide)-2'-deox)",,22.9,122,30.1
"AD006: truncated nucleic acid ligand GAC6AGCA6AAG6CCGGA6GGCAGC666A6GCCG, 6 = Nap-dU (DNA GACUAGCAUAAGUCCGGAUGGCAGCUUUAUGCCG; aptamer; DNA, [NapdU] at 4, 9, 13, 19, 26, 27, 28, 30, backbone and methylation of C not given here)",939,77.6,,
"AD007: truncated nucleic acid ligand GCA6AAG6CCGGA6GGCAGC666A6GCCGACC, 6 = Nap-dU (DNA GCAUAAGUCCGGAUGGCAGCUUUAUGCCGACC; aptamer; DNA, [NapdU] at 4, 8, 14, 21, 22, 23, 25, backbone and methylation of C not given here)",536,152,,
"AD008: truncated nucleic acid ligand GCA6AAG6CCGGA6GGCAGC666A6GC, 6 = Nap-dU (DNA GCAUAAGUCCGGAUGGCAGCUUUAUGC; aptamer; DNA, [NapdU] at 4, 8, 14, 21, 22, 23, 25, backbone and methylation of C not given here)",66.9,287,,
